From patent US9309222B2, “Phenyl linked quinolinyl modulators of RORγt” (Janssen Pharmaceutica NV, priority 2012, dated 2016)
“And” between values parts separate entries of the source, which are not always exact repeats. Equal values may be shown once. Where a name gives a salt, the structure may show the parent alone.

Columns and labels:
[1] = target: T1, human RORγt ligand binding domain (RORγt LBD) (Homo sapiens, UniProt P51449); test: RORγt ThermoFluor assay (thermal shift, ligand binding affinity); details: estimated from concentration response of thermal shift
T1 construct: His-tag (N); TurboTEV protease cleavage site (ENLYFQG) (N); made in house; host or cells: E. coli (pHIS1, modified pET vector)
T1 sequence (P51449 with tags, fused parts or gaps): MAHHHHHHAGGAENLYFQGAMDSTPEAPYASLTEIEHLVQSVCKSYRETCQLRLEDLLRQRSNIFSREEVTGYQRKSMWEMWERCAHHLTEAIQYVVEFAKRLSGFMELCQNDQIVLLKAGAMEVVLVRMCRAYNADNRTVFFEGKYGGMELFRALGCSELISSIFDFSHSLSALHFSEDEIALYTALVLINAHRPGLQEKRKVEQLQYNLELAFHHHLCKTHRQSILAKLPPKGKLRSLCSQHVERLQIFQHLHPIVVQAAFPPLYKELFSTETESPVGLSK
Description: This approach is applicable to a wide variety of systems, and rigorous in theoretical interpretation through quantitation of equilibrium binding constants (KD).
The shift in the melting point described as a ΔTm is proportional to the concentration and affinity of the ligand.
RORγt ThermoFluor® Assay Construct
Protein and compound solutions are dispensed into black 384-well polypropylene PCR microplates (Abgene) and overlayed with silicone oil (1 μL Fluka, type DC 200) to prevent evaporation.
Fluorescence was measured by continuous illumination with UV light (Hamamatsu LC6) supplied via fiber optic and filtered through a band-pass filter (380-400 nm; >6 OD cutoff). Fluorescence emission of the entire 384-well plate was detected by measuring light intensity using a CCD camera (Sensys, Roper Scientific) filtered to detect 500±25 nm, resulting in simultaneous and independent readings of all 384 wells. Images were collected at each temperature, and the sum of the pixel intensity in a given area of the assay plate was recorded versus temperature. Reference wells contained RORγt without compounds, and the assay conditions were as follows: • 0.065 mg/mL RORγt • 60 μM 1,8-ANS • 100 mM Hepes, pH 7.0 • 10 mM NaCl • 2.5 mM GSH • 0.002% Tween-20
Project compounds were arranged in a pre-dosed mother plate (Greiner Bio-one) wherein compounds are serially diluted in 100% DMSO by 1:2 from a high concentration of 10 mM over 12 columns within a series (column 12 is a reference well containing DMSO, no compound).
The compounds were robotically dispensed directly into assay plates (1×=[…]) using a Hummingbird capillary liquid handling instrument (Digilab). Following compound dispense, protein and dye in buffer was added to achieve the final assay volume of 3 μL, followed by 1 μL of silicone oil.

human RORγt LBD = target: T2, human RORγt LBD (Homo sapiens, UniProt P51449); test: RORγt reporter assay (GAL4-RORγt LBD luciferase in HEK293T cells); assay type: cell-based; details: for IC50: HEK293T cells, 24 hours compound treatment; for inhibition at 6 µM: HEK-293T, read-out: RORγt reporter Assay, % inhibition @ 6 μM, HEK293T cells, 6 μM compound
T2 construct: expressed in transfected cells
T2 sequence (P51449 258-518): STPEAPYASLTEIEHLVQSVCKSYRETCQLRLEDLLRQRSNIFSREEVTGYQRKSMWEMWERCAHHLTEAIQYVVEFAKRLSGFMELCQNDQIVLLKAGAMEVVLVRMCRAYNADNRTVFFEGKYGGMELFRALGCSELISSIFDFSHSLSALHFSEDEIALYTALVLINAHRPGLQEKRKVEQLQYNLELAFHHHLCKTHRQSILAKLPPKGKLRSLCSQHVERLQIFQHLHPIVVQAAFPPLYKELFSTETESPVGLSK
Source text: A reporter assay was used to test functional activity of RORγt modulatory compounds on transcriptional activation driven by the RORγt LBD. Cells used in the assay were co-transfected with two constructs. The first construct, pBIND-RORγt LBD, contained the wild type human RORγt LBD fused to the DNA binding domain of the GAL4 protein. The second construct, pGL4.31 (Promega Cat no. C935A), contained multiple GAL4 responsive DNA elements upstream of firefly luciferase. […] The mutant construct was called pBIND-RORγt-AF2.
The pBIND vector contains the GAL4 DNA Binding Domain (GAL4 DBD) and the renilla luciferase gene under control of the SV40 promoter. Renilla luciferase expression serves as a control for transfection efficiency and cell viability.
The reporter assay was performed by transiently transfecting HEK293T cells with 5 ng of pBIND-RORγt LBD or pBIND-RORγt LBD-AF2 and 5 μg pGL4.31 (Promega Cat no. C935A) using Fugene 6 (Invitrogen Cat no. E2691) at a 1:6 ratio of DNA:Fugene 6 in a T-75 flask in which cells were at least 80% confluent. Twenty four hours after bulk transfection, cells were plated into 96-well plates at 50,000 cells/well in phenol-red free DMEM containing 5% Lipid Reduced FCS and Pen/Strep. Six hours after plating, cells were treated with compounds for 24 hours. Media was removed and cells were lysed with 50 μL 1× Glo Lysis Buffer (Promega). Dual Glo Luciferase Reagent (50 μL/well) was then added and firefly luciferase luminescence was read on an Envision after a ten minute incubation. Finally, Stop and Glo reagent (50 μL/well) was added and renilla luciferase luminescence was read on an Envision after a ten minute incubation. To calculate the effect of compounds on RORγt activity, the ratio of firefly to renilla luciferase was determined and plotted against compound concentration. Agonist compounds increase RORγt-driven luciferase expression, and antagonist or inverse agonist compounds decrease luciferase expression.

Compound | Kd [1] | IC50 (human RORγt LBD) | inhibition at 6 µM (human RORγt LBD)
CN(C)CCN(C)c1nc2ccc(C(O)(c3ccncc3)c3cncn3C)cc2c(Cl)c1-c1ccccc1 (stereo not drawn) [Example 64, (4-Chloro-2-{[2-(dimethylamino)ethyl](methyl)amino}-3-phenylquinolin-6-yl)(1-methyl-1H-imidazol-5-yl)pyridin-4-ylmethanol•TFA] | 500 nM | ~4000 nM | 87%
Cn1cncc1C(O)(c1ccncc1)c1ccc2nc(N3CCC(O)CC3)c(-c3ccccc3)c(Cl)c2c1 (stereo not drawn) [Example 72, 1-{4-Chloro-6-[hydroxy(1-methyl-1H-imidazol-5-yl)pyridin-4-ylmethyl]-3-phenylquinolin-2-yl}piperidin-4-ol•TFA] | 8500 nM | ~2000 nM | 83%
COC1CCN(c2nc3ccc(C(O)(c4ccncc4)c4cncn4C)cc3c(Cl)c2-c2ccccc2)CC1 (stereo not drawn) [Example 75, [4-Chloro-2-(4-methoxypiperidin-1-yl)-3-phenylquinolin-6-yl](1-methyl-1H-imidazol-5-yl)pyridin-4-ylmethanol•TFA] | 420 nM | ~2000 nM | 88%
Cn1cncc1C(O)(c1ccncc1)c1ccc2nc(N3CCN(c4ccccc4)CC3)c(-c3ccccc3)c(Cl)c2c1 (stereo not drawn) [Example 77, [4-Chloro-3-phenyl-2-(4-phenylpiperazin-1-yl)quinolin-6-yl](1-methyl-1H-imidazol-5-yl)pyridin-4-ylmethanol•TFA] | 1100 nM | ~4000 nM | 75%
CCCCc1c(-c2ccccc2)c(Cl)nc2ccc(C(O)(c3ccncc3)c3cncn3C)cc12 (stereo not drawn) [Example 78, (4-Butyl-2-chloro-3-phenylquinolin-6-yl)(1-methyl-1H-imidazol-5-yl)pyridin-4-ylmethanol•TFA] | 270 nM | ~2000 nM | 92%
COc1nc2ccc(C(O)(c3cccnc3)c3cccc(Cl)c3)cc2c(OC)c1-c1ccccc1 (stereo not drawn) [Example 79, (3-Chlorophenyl)(2,4-dimethoxy-3-phenylquinolin-6-yl)pyridin-3-ylmethanol•TFA] | 510 nM | 1200 nM | 73%
CCOc1nc2ccc(C(O)(c3cccnc3)c3cccc(Cl)c3)cc2c(Cl)c1-c1ccccc1 (stereo not drawn) [Example 81, (4-Chloro-2-ethoxy-3-phenylquinolin-6-yl)(3-chlorophenyl)pyridin-3-ylmethanol•TFA] | 170 nM | 320 nM | 93%
CCOc1nc2ccc(C(O)(c3ccncc3)c3cncn3C)cc2c(OCC)c1-c1ccccc1 (stereo not drawn) [Example 82, (2,4-Diethoxy-3-phenylquinolin-6-yl)(1-methyl-1H-imidazol-5-yl)pyridin-4-ylmethanol•TFA] | 560 nM | ~4000 nM | 71%
CCCCc1c(-c2ccccc2)cnc2ccc(C(O)(c3ccncc3)c3cncn3C)cc12 (stereo not drawn) [Example 83, (4-Butyl-3-phenylquinolin-6-yl)(1-methyl-1H-imidazol-5-yl)pyridin-4-ylmethanol•TFA] | 4200 nM | > 6000 nM | -3%
CC(C)Oc1c(-c2ccccc2)c(Cl)nc2ccc(C(O)(c3ccncc3)c3cncn3C)cc12 (stereo not drawn) [Example 85, [2-Chloro-4-(1-methylethoxy)-3-phenylquinolin-6-yl](1-methyl-1H-imidazol-5-yl)pyridin-4-ylmethanol•TFA] | 130 nM | 640 nM | 92%
CC(C)(C)OC(=O)N1CCC(C(O)(c2cccnc2)c2ccc3nc(Cl)c(-c4ccccc4)c(Cl)c3c2)CC1 (stereo not drawn) [Example 91, tert-Butyl 4-[(2,4-dichloro-3-phenylquinolin-6-yl)(hydroxy)pyridin-3-ylmethyl]piperidine-1-carboxylate] | 220 nM | 200 nM | 97%
OC(c1cccnc1)(c1ccc2nc(Cl)c(-c3ccccc3)c(Cl)c2c1)C1CCCNC1 (stereo not drawn) [Example 93, (2,4-Dichloro-3-phenylquinolin-6-yl)(piperidin-3-yl)pyridin-3-ylmethanol•TFA] | 1200 nM | > 6000 nM | 49%
CN1CCCC(C(O)(c2cccnc2)c2ccc3nc(Cl)c(-c4ccccc4)c(Cl)c3c2)C1 (stereo not drawn) [Example 94, (2,4-Dichloro-3-phenylquinolin-6-yl)(1-methylpiperidin-3-yl)pyridin-3-ylmethanol•TFA] | 2400 nM | > 6000 nM | 43%
CCc1nc2ccc(C(O)(c3ccncc3)c3cncn3C)cc2c(CC)c1-c1ccccc1 (stereo not drawn) [Example 97, (2,4-Diethyl-3-phenylquinolin-6-yl)(1-methyl-1H-imidazol-5-yl)pyridin-4-ylmethanol•TFA] | 53 nM | 580 nM | 100%
CCN(CC)c1c(-c2ccccc2)c(Cl)nc2ccc(C(O)(c3cccnc3)c3cccc(Cl)c3)cc12 (stereo not drawn) [Example 101, [2-Chloro-4-(diethylamino)-3-phenylquinolin-6-yl](3-chlorophenyl)pyridin-3-ylmethanol•TFA] | 2500 nM | 640 nM | 94%
CCN(CC)c1nc2ccc(C(O)(c3cccnc3)c3cccc(Cl)c3)cc2c(C)c1-c1ccccc1 (stereo not drawn) [Example 103, (3-Chlorophenyl)[2-(diethylamino)-4-methyl-3-phenylquinolin-6-yl]pyridin-3-ylmethanol•TFA] | 1400 nM | 2200 nM | 85%
CCN(CC)c1nc2ccc(C(O)(c3cccnc3)c3cccc(Cl)c3)cc2c(OC)c1-c1ccccc1 (stereo not drawn) [Example 106, (3-Chlorophenyl)[2-(diethylamino)-4-methoxy-3-phenylquinolin-6-yl]pyridin-3-ylmethanol•TFA] | 1300 nM | 2300 nM | 75%
CN(C)c1nc2ccc(C(O)(c3ccncc3)c3cncn3C)cc2c(O)c1-c1ccccc1 (stereo not drawn) [Example 108, 2-(Dimethylamino)-6-[hydroxy(1-methyl-1H-imidazol-5-yl)pyridin-4-ylmethyl]-3-phenylquinolin-4-ol•TFA] | 330 nM | 1100 nM | 90%
OC(c1ccc(C(F)(F)F)nc1)(c1cccc(Cl)c1)c1ccc2nc(Cl)c(-c3ccccc3)c(Cl)c2c1 (stereo not drawn) [Example 111, (3-Chlorophenyl)(2,4-dichloro-3-phenylquinolin-6-yl)(6-(trifluoromethyl)pyridin-3-yl)methanol] | 640 nM | 1000 nM and ~2000 nM | 77%
